{"source": "paper PMC12030253", "about": "“New Temporin A Analogues Modified in Positions 1 and 10—Synthesis and Biological Studies” (Pharmaceutics, 2025)", "origin": "cited, not measured here", "parameters_in_all_cases": "method as in PMID 38931840", "key": {"[1]": {"test_system": "MCF-7 cells", "conditions": "cited from earlier work"}, "[2]": {"test_system": "MCF-12F cells", "conditions": "MTT, 72 h, non-tumorigenic cells; read-out: Mean IC50 ± SD MCF-12F; cited from earlier work"}, "[3]": {"test_system": "BALB 3T3 cells", "conditions": "cited from earlier work; for CC50: BALB 3T3 cells, NRU"}, "[4]": {"test_system": "Bacillus subtilis NBIMCC 3562", "conditions": "cited from earlier work; for Percentage-based inhibition compared to antibiotic, B. subtilis 3562: chloramphenicol taken as 100%; for Inhibition zone B. subtilis 3562: 20 µL per disk"}, "[5]": {"test_system": "Escherichia coli NBIMCC 8785", "conditions": "20 µL per disk, cited from earlier work"}, "[6]": {"test_system": "Arthrobacter oxydans NBIMCC 9333", "conditions": "cited from earlier work; for Percentage-based inhibition compared to antibiotic, A. oxydans 9333: gentamicin taken as 100%; for Inhibition zone A. oxydans 9333: 20 µL per disk"}, "[7]": {"test_system": "Escherichia coli NBIMCC 8785", "conditions": "broth dilution, 0-320 µg/mL, 24 h; cited from earlier work"}, "[8]": {"test_system": "Pseudomonas aeruginosa NBIMCC 3700", "conditions": "cited from earlier work; for Percentage-based inhibition compared to antibiotic, P. aeruginosa 3700: gentamicin taken as 100%; for Inhibition zone P. aeruginosa 3700: 20 µL per disk"}, "[9]": {"test_system": "Bacillus subtilis NBIMCC 3562", "conditions": "broth dilution, 0-320 µg/mL, 24 h; cited from earlier work"}, "[10]": {"test_system": "MDA-MB-231 cells", "conditions": "cited from earlier work"}, "[11]": {"test_system": "Pseudomonas aeruginosa NBIMCC 3700", "conditions": "broth dilution, 0-320 µg/mL, 24 h; cited from earlier work"}, "[12]": {"test_system": "Arthrobacter oxydans NBIMCC 9333", "conditions": "broth dilution, 0-320 µg/mL, 24 h; cited from earlier work"}, "[13]": {"test_system": "Candida albicans NBIMCC 74", "conditions": "broth dilution, 0-320 µg/mL, 24 h; cited from earlier work"}}, "note": "Like-named read-outs stand apart in the source and are kept apart here. Ends that are not written are not given here.", "data": [{"substance": "FLPLIGRVL-S-GILNH2 (FLPLIGRVLSGIL-NH2) [DTA, parent peptide Temporin A, C-terminal amide]", "values": [{"measurement": "IC50", "setting": "[1]; MTT, 72 h, read-out: Mean IC50 ± SD MCF-7", "result": "73.2 ± 3.36", "unit": "µM"}, {"measurement": "Selectivity Index (SI) MCF-7", "setting": "[1]; SI = IC50 (MCF-12F)/IC50 (MCF-7)", "result": 1.90}, {"measurement": "IC50", "setting": "[2]", "result": "139 ± 8.36", "unit": "µM"}, {"measurement": "CC50", "setting": "[3]; irradiated 2.4 J/cm^2, read-out: Mean CC50 ± SD +Irr", "result": "105 ± 4.88", "unit": "µM"}, {"measurement": "CC50", "setting": "[3]; without irradiation, read-out: Mean CC50 ± SD −Irr", "result": "106 ± 4.18", "unit": "µM"}, {"measurement": "PIF (Photo-Irritation Factor)", "setting": "[3]; PIF < 2 not phototoxic", "result": 1.01}, {"measurement": "Percentage-based inhibition compared to antibiotic, B. subtilis 3562", "setting": "[4]; 1.4 mg/mL", "result": 33.8, "unit": "%"}, {"measurement": "Percentage-based inhibition compared to antibiotic, B. subtilis 3562", "setting": "[4]; 10 mg/mL", "result": 33.8, "unit": "%"}, {"measurement": "Inhibition zone B. subtilis 3562", "setting": "[4]; peptide 1.4 mg/mL", "result": "8.8 ± 0.3", "unit": "mm"}, {"measurement": "Inhibition zone B. subtilis 3562", "setting": "[4]; peptide 10 mg/mL", "result": "8.8 ± 0.8", "unit": "mm"}, {"measurement": "Inhibition zone E. coli 8785", "setting": "[5]; peptide 1.4 mg/mL", "result": 0, "unit": "mm"}, {"measurement": "Inhibition zone E. coli 8785", "setting": "[5]; peptide 10 mg/mL", "result": 0, "unit": "mm"}, {"measurement": "Percentage-based inhibition compared to antibiotic, A. oxydans 9333", "setting": "[6]; 1.4 mg/mL", "result": 37.8, "unit": "%"}, {"measurement": "Percentage-based inhibition compared to antibiotic, A. oxydans 9333", "setting": "[6]; 10 mg/mL", "result": 53.9, "unit": "%"}, {"measurement": "Inhibition zone A. oxydans 9333", "setting": "[6]; peptide 1.4 mg/mL", "result": "6.8 ± 0.3", "unit": "mm"}, {"measurement": "Inhibition zone A. oxydans 9333", "setting": "[6]; peptide 10 mg/mL", "result": "9.7 ± 0.6", "unit": "mm"}, {"measurement": "MIC E. coli 8785", "setting": "[7]", "result": 320, "unit": "µg/mL"}, {"measurement": "Percentage-based inhibition compared to antibiotic, P. aeruginosa 3700", "setting": "[8]; 1.4 mg/mL", "result": 45.9, "unit": "%"}, {"measurement": "Percentage-based inhibition compared to antibiotic, P. aeruginosa 3700", "setting": "[8]; 10 mg/mL", "result": 54.7, "unit": "%"}, {"measurement": "Inhibition zone P. aeruginosa 3700", "setting": "[8]; peptide 1.4 mg/mL", "result": "7.8 ± 0.3", "unit": "mm"}, {"measurement": "Inhibition zone P. aeruginosa 3700", "setting": "[8]; peptide 10 mg/mL", "result": "9.3 ± 0.6", "unit": "mm"}, {"measurement": "MIC B. subtilis 3562", "setting": "[9]", "result": 80, "unit": "µg/mL"}, {"measurement": "IC50", "setting": "[10]; MTT, 72 h, read-out: Mean IC50 ± SD MDA-MB-231", "result": "115 ± 4.04", "unit": "µM"}, {"measurement": "Selectivity Index (SI) MDA-MB-231", "setting": "[10]; SI = IC50 (MCF-12F)/IC50 (MDA-MB-231)", "result": 1.20}, {"measurement": "MIC P. aeruginosa 3700", "setting": "[11]", "result": 320, "unit": "µg/mL"}, {"measurement": "MIC A. oxydans 9333", "setting": "[12]", "result": 80, "unit": "µg/mL"}, {"measurement": "MIC C. albicans 74", "setting": "[13]", "result": 320, "unit": "µg/mL"}]}]}
